According to US5679695A, “Aryl and heteroaryl compounds having anti-retrovirus activity” (The University of Connecticut, priority 1995, dated 1997):
Values joined by “and” are separate entries in the source; they are usually repeats but may differ in a detail not shown here. Equal values may be shown once. Read-outs that look alike come from different tables or passages of the source.

How the values were obtained:
[1] = test system: HIV-1; test: microbe, parasite or virus in culture; format: cell-based; conditions: for viability at 17.9 µM: 1.79 × 10^-5 Molar
Protocol: (§1) Another assay for testing the efficacy of the compounds is the procedure* used in the National Cancer Institute's test for agents active against Human Immunodeficiency Virus (HIV). It is designed to detect agents acting at any stage of the virus reproductive cycle. The assay basically involves the killing of T4 lymphocytes by HIV. Small amounts of HIV are added to cells, and a complete cycle of virus reproduction is necessary to obtain the required cell killing. Agents that interact with virions, cells, or virus gene-products to interfere with viral activities will protect cells from cytolysis. The system is automated in several features to accommodate large numbers of candidate agents and is generally designed to detect anti-HIV activity. However, compounds that degenerate, or are rapidly metabolized in the culture conditions may not show activity in this screen. All tests are compared with at least one positive (e.g., AZT-treated) control done at the same time under identical conditions.
(§2) * Weislow. O. W., Kiser, R., Fine, D., Bader, J., Shoemaker, R. H., Boyd, M. R.: New soluble-formazan assay for HIV-1 cytopathic effects: application to high-flux screening of synthetic and natural products for AIDS-antiviral activity. J. Natl. Cancer Inst. 81:577-586, 1989.
(§3) 1. The Candidate agent is dissolved in dimethyl sulfoxide (unless otherwise instructed) then diluted 1:100 in cell culture medium before preparing serial half-log10 dilutions. T4 lymphocytes (CEM cell line) are added and after a brief interval HIV-1 added, resulting in a 1:200 final dilution of the compound. Uninfected cells with the compound serve as a toxicity control, and infected and uninfected cells without compound serve as basic controls.
(§4) 2. Cultures are incubated at 37° in a 5% carbon dioxide atmosphere for 6 days.
(§5) 3. The tetrazolium salt, XTT, is added to all wells, and cultures are incubated to allow formazan color development by viable cells.
(§6) 4. Individual wells are analyzed spectrophotometrically to quantitate formazan production, and in addition are viewed microscopically for detection of viable cells and confirmation of protective activity.
(§7) 5. Drug-treated virus-infected cells are compared with drug-treated noninfected cells and with other appropriate controls (untreated infected and untreated noninfected: cells, drug-containing wells without cells, etc.) on the same plate.
(§8) 6. Data are reviewed in comparison with other tests done at the same time and a determination about activity is made.

[2] = XTT toxicity control, uninfected culture, CEM-V; format: cell-based; conditions: human, cem-v cells, read-out: Uninfected culture response
Protocol: as §1, §2, §3, §4, §5, §6, §7, §8

O=[N+]([O-])c1ccccc1S(=O)(=O)c1ccccc1 [Compound 1, 1-Nitro-2-(phenylsulfonyl)benzene]
Conclusion ([1]; CEM-V): ACTIVE
Infected culture response ([1]; CEM-V, 1.79 × 10^-6 Molar, 1.79 µM): 9.3%
Infected culture response ([1]; CEM-V, 1.79 × 10^-7 Molar, 0.179 µM): 8.7%
Infected culture response ([1]; CEM-V, 1.89 × 10^-4 Molar, 189 µM): 87.3%
Infected culture response ([1]; CEM-V, 1.89 × 10^-5 Molar, 18.9 µM): 110.5%
Infected culture response ([1]; CEM-V, 1.89 × 10^-6 Molar, 1.89 µM): 11.4%
Infected culture response ([1]; CEM-V, 1.90 × 10^-7 Molar, 0.19 µM): 12.1%
Infected culture response ([1]; CEM-V, 5.66 × 10^-6 Molar, 5.66 µM): 36.6%
Infected culture response ([1]; CEM-V, 5.67 × 10^-7 Molar, 0.567 µM): 8.3%
Infected culture response ([1]; CEM-V, 5.68 × 10^-8 Molar, 0.0568 µM): 9.4%
Infected culture response ([1]; CEM-V, 5.98 × 10^-5 Molar, 59.8 µM): 95.2%
Infected culture response ([1]; CEM-V, 5.99 × 10^-6 Molar, 5.99 µM): 65.3% and 90.9%
Infected culture response ([1]; CEM-V, 6.00 × 10^-7 Molar, 0.6 µM): 8.3%
Infected culture response ([1]; CEM-V, 6.01 × 10^-8 Molar, 0.0601 µM): 8.7%
Conclusion ([1]; CEM-Z): ACTIVE
Infected culture response ([1]; CEM-Z, 1.79 × 10^-6 Molar, 1.79 µM): 47.1% and 26.4%
Infected culture response ([1]; CEM-Z, 5.65 × 10^-5 Molar, 56.5 µM): 93.1%
Infected culture response ([1]; CEM-Z, 5.66 × 10^-6 Molar, 5.66 µM): 58.3%
viability at 17.9 µM ([1]; Human immunodeficiency virus 1, CEM-V, read-out: Infected culture response): 92.2%
viability at 1.79 µM ([1]; Human immunodeficiency virus 1, CEM-V, 1.79 × 10^-6 Molar, read-out: Infected culture response): 8%
viability at 0.179 µM ([1]; Human immunodeficiency virus 1, CEM-V, 1.79 × 10^-7 Molar, read-out: Infected culture response): 10.3%
viability at 189 µM ([1]; Human immunodeficiency virus 1, CEM-V, 1.89 × 10^-4 Molar, read-out: Infected culture response): 86%
viability at 18.9 µM ([1]; Human immunodeficiency virus 1, CEM-V, 1.89 × 10^-5 Molar, read-out: Infected culture response): 100%
viability at 1.89 µM ([1]; Human immunodeficiency virus 1, CEM-V, 1.89 × 10^-6 Molar, read-out: Infected culture response): 18.2%
viability at 0.19 µM ([1]; Human immunodeficiency virus 1, CEM-V, 1.90 × 10^-7 Molar, read-out: Infected culture response): 14%
viability at 5.66 µM ([1]; Human immunodeficiency virus 1, CEM-V, 5.66 × 10^-6 Molar, read-out: Infected culture response): 31.1%
viability at 0.567 µM ([1]; Human immunodeficiency virus 1, CEM-V, 5.67 × 10^-7 Molar, read-out: Infected culture response): 10.6%
viability at 0.0568 µM ([1]; Human immunodeficiency virus 1, CEM-V, 5.68 × 10^-8 Molar, read-out: Infected culture response): 10.1%
viability at 59.8 µM ([1]; Human immunodeficiency virus 1, CEM-V, 5.98 × 10^-5 Molar, read-out: Infected culture response): 79.7%
viability at 0.6 µM ([1]; Human immunodeficiency virus 1, CEM-V, 6.00 × 10^-7 Molar, read-out: Infected culture response): 15.5%
viability at 0.0601 µM ([1]; Human immunodeficiency virus 1, CEM-V, 6.01 × 10^-8 Molar, read-out: Infected culture response): 14.7%
viability at 1.79 µM ([1]; Human immunodeficiency virus 1, CEM-V, dose printed 1.79 × 10^-6 Molar in the line between 5.66 × 10^-6 and 5.65 × 10^-5, read-out: Infected culture response): 53.1%
viability at 17.9 µM ([1]; Human immunodeficiency virus 1, CEM-Z, read-out: Infected culture response): 85.7%
viability at 56.5 µM ([1]; Human immunodeficiency virus 1, CEM-Z, 5.65 × 10^-5 Molar, read-out: Infected culture response): 92.3%
viability at 5.66 µM ([1]; Human immunodeficiency virus 1, CEM-Z, 5.66 × 10^-6 Molar, read-out: Infected culture response): 74.5%
viability at 1.79 µM ([1]; Human immunodeficiency virus 1, CEM-Z, dose printed 1.79 × 10^-6 Molar in the line between 5.66 × 10^-6 and 5.65 × 10^-5, read-out: Infected culture response): 91.3%
viability at 0.179 µM ([2]; 1.79 × 10^-7 Molar): 123%
viability at 189 µM ([2]; 1.89 × 10^-4 Molar): 86.7%
viability at 18.9 µM ([2]; 1.89 × 10^-5 Molar): 99.9%
viability at 1.89 µM ([2]; 1.89 × 10^-6 Molar): 97.9%
viability at 0.19 µM ([2]; 1.90 × 10^-7 Molar): 96.9%
viability at 59.8 µM ([2]; 5.98 × 10^-5 Molar): 105%
viability at 5.99 µM ([2]; 5.99 × 10^-6 Molar): 111%
viability at 0.6 µM ([2]; 6.00 × 10^-7 Molar): 90.4%
viability at 0.0601 µM ([2]; 6.01 × 10^-8 Molar): 105%
